Series [1] concerns the target recombinant TEAD2 protein central pocket (Homo sapiens (Human), UniProt Q15562). The series can be described thus: Competitive thiol binding assay (CPM assay), TEAD2. Particulars: 150 nM recombinant TEAD protein, 150 nM CPM. As for the experimental part: (§1) Diluting the tested compound in gradient to 5 uL with buffer (25 mM HEPES, 150 mM NaCl, pH6.5), then adding 5 μL of the newly prepared 0.45 uM recombinant TEAD protein solution, and incubating at room temperature for 10 minutes. […] After shaking the plate at room temperature for 1 hour, measuring the fluorescence intensity (Ex/Em: 380/470 nm).

Series [2] has as its target recombinant TEAD4 protein central pocket (Homo sapiens (Human), UniProt Q15561). The series can be described thus: Competitive thiol binding assay (CPM assay), TEAD4. Particulars: 150 nM recombinant TEAD protein, 150 nM CPM. The method, then:
as §1

Series [3] deals with recombinant TEAD3 protein central pocket (Homo sapiens (Human), UniProt Q99594). In words: Competitive thiol binding assay (CPM assay), TEAD3. Particulars: 150 nM recombinant TEAD protein, 150 nM CPM. As for the experimental part:
as §1

The nature of series [4]: Mouse plasma pharmacokinetic test. Format: in vivo, CD-1 mice. An excerpt: In this example, different compounds are used to perform a mouse pharmacokinetic experiment, and the specific steps are as follows: Animal information: CD-1 mice, male, about 20 g, purchase from Beijing Weitonglihua Experimental Animal Technology Co., Ltd.
Animal dietary status: Animals are not fasted before administration and allowed to drink water freely.
Compound preparation method: for intragastric administration (IG)(G1 group), preparing with 0.5% CMC-Na, and for intravenous injection(IV) (G2 group), preparing 5% DMSO+30% PEG400+65% water. […]
Sampling time points of G1 group: 8 points in total, namely 10 min, 30 min, 1 h, 2 h, 4 h, 6 h, 8 h and 24 h after administration, among them, animals G1M01-G1M03 are sampled at 3 time points, namely 10 min, 1 h and 6 h; animals G1M04-G1M06 are sampled at 3 time points, namely 30 min, 2 h and 8 h; animals G1M07-G1M09 are sampled at 2 time points, namely 4 h and 24 h.
Sampling time points of G2 group: 9 points in total, namely 5 min, 10 min, 30 min, 1 h, 2 h, 4 h, 6 h, 8 h, 24 h after administration. It is recommended that animals G2M01-G2M03 are sampled at 3 time points, namely 5 min, 1 h, and 6 h; animals G2M04-G2M06 are sampled at 3 time points, namely 10 min, 2 h, and 8 h; animals G2M07-G2M09 are sampled at 3 time points, namely 30 min, 4 h, and 24 h.
Sample collection: On the day of the experiment, collecting approximately 0.1 mL of whole blood samples at each preset time point and placing in EDTA-K2 anticoagulant tubes.
Sample processing: Within 30 minutes after whole blood sample collection, centrifuging at 4° C., 12,000 rpm for 5 minutes to separate plasma, collecting the upper plasma sample into a sample tube, and freezing the plasma sample in a −10˜−30° C. refrigerator within 30 minutes and transferring to a −60˜−90° C. refrigerator within 24 hours.
Sample testing and data processing: LC/MS/MS testing, WinNonlin for fitting and pharmacokinetic parameter calculation.

Series [5] has as its target recombinant TEAD1 protein central pocket (Homo sapiens (Human), UniProt P28347). The series can be described thus: Competitive thiol binding assay (CPM assay), TEAD1. The following applies: 150 nM recombinant TEAD protein, 150 nM CPM. The method, then: as §1
Series [6] deals with recombinant TEAD1 protein (194-411, Uniprot ID: P28347). The series can be described thus: Thermal shift assay (protein melting point curve), TEAD1. Also noted: key to the marks not given beside the values. It counts as binding. Particulars: 10 μM TEAD protein, 50 μM test compound. The method, then:
(§2) The ability of the compounds to increase the melting point of purified recombinant TEAD1/2/3/4 proteins is tested using a thermal shift assay. The strength of the compound's binding to the protein and the selectivity of the compound's binding to the four TEAD subtypes are evaluated by calculating the melting point shift ΔTm−° C. […] Based on the Δ Tm value, the ability of the compound to bind to the TEAD protein is divided into four levels: ++++, +++, ++, +.
(§3) Test method of protein melting point curve: 10 μL of the protein melting point curve experimental system (10 μM TEAD protein, 50 μM test compound, SYPRO® orange (55692, sigma)) is prepared in a 384-well fluorescence quantitative PCR plate according to the following system, and reacted at 4° C. in the dark for 20 minutes. On-machine reaction: ABI QuantStudio Dx fluorescence quantitative PCR instrument; program: from 25° C. to 80° C., increasing the temperature at a rate of 0.05° C./s, and reading the fluorescence channel signal of the corresponding wavelength of SYPRO® orange every second.

The target of series [7] is recombinant TEAD2 protein (218-447, Uniprot ID: Q15562) (Homo sapiens (Human), UniProt Q15562). In words: Thermal shift assay (protein melting point curve), TEAD2. Format: binding. The following applies: 10 μM TEAD protein, 50 μM test compound. As for the experimental part:
as §2, §3

The test system of series [8] is TEAD family proteins. The series can be described thus: Thermal shift assay, summary over all TEAD subtypes. Format: binding. Particulars: summary of Table 1. As for the experimental part: as §2, §3
Series [9] has as its target recombinant TEAD4 protein (217-434, Uniprot ID: Q15561) (Homo sapiens (Human), UniProt Q15561). The series can be described thus: Thermal shift assay (protein melting point curve), TEAD4. Format: binding. The following applies: 10 μM TEAD protein, 50 μM test compound. As for the experimental part:
as §2, §3

The target in series [10] is recombinant TEAD3 protein (218-435, Uniprot ID: Q99594) (Homo sapiens (Human), UniProt Q99594). In words: Thermal shift assay (protein melting point curve), TEAD3. The following applies: 10 μM TEAD protein, 50 μM test compound. Format: binding. As for the experimental part: as §2, §3
recombinant TEAD3 protein (218-435, Uniprot ID: Q99594), sequence (Q99594 218-435): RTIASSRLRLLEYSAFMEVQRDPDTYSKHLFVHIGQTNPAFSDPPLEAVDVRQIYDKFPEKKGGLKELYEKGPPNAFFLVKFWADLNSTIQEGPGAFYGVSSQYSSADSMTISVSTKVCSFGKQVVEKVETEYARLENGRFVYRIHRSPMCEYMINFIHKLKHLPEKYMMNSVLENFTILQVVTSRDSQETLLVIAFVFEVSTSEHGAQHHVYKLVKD
The nature of series [11]: Permeability test on Caco2 cells. Format: in vitro ADME. Particulars: human, Caco-2, AP→BL. As for the experimental part:
(§4) After resuscitation, the Caco-2 cells are transferred to a conventional culture dish and cultured in a high-glucose DMEM medium (containing 10% FBS) at 37° C. and 5% CO2 in an incubator. When the cells cover 80% to 95% of the bottom of the dish, they are digested with trypsin containing 0.25% EDTA to disperse them into a single cell suspension, and the cell concentration is determined using a cell counter, after that, the concentration of the cell suspension is adjusted to 2 to 2.5×10^5/mL with fresh culture medium and inoculated into a Transwell polycarbonate membrane 12-well plate, the fresh culture medium is replaced every two days in the first two weeks and once a day in the last week, the culture is continued for 19 to 21 days to obtain a fully differentiated single cell layer.

Series [12] has as its system Caco-2 cells. In words: Permeability test on Caco2 cells. It counts as in vitro ADME. The following applies: for Penetration Type: Caco2 cell model. As for the experimental part: as §4
Series [13] is described as follows: In vitro liver microsome stability, mouse. It counts as in vitro ADME. The method, then:
(§5) Testosterone is selected as the positive reference compound. The specific method is as follows:
(§6) Preparing 0.1MK3 PO4 (pH 7.4) buffer and 3×NADPH stock solution (6 mM, 5 mg/mL), and preheating in a 37° C. water bath; preparing spiking solution of tested compound and control compound: adding 5 μL compound stock solution (10 mM) to 95 μL acetonitrile; preparing 1.5 μM spiking solution in microsomes (0.75 mg/mL): add 1.5 μL spiking solution and 18.75 μL liver microsome solution (20 mg/mL) to 479.75 μL K3PO4 buffer; taking 30 μL spiking solution in microsomes and adding it to the multiwell plate, and incubating at 37° C. for 5 min; adding 15 μL of NADPH stock solution to each well, starting to react, and timing; adding 150 μL of acetonitrile solution containing IS at 0 min, 5 min, 15 min, 30 min, 45 min and 60 min respectively to terminate the reaction; after 10 min of oscillation, centrifuging the reaction at 6000 rpm for 15 min; taking 80 μL of supernatant from each well for LC/MS detection and calculating Ti/2.
(§7) Liver microsomes of mice, rats, dogs, and human used in the experiment are purchased from Xenotech.

Series [14] is described as follows: In vitro liver microsome stability, human. Format: in vitro ADME. As for the experimental part: as §5, §6, §7
[15] abbreviates: CD-1, mouse, plasma, VT103 in mice, IV.
Where [16] appears, read: single replicate, read-out: Papp.

We go through 6 molecules from patent US20260055126A1, “SMALL MOLECULE COMPOUNDS WITH PHOSPHORYLATED ARYL STRUCTURES AND USE THEREOF” (HANGZHOU PHECDAMED CO., LTD., priority 2022, published 2026).

Where “and” joins values, the source holds several entries; their conditions need not be identical. Equal entries are not always repeated. Where two headings read alike, the source gives them in different places.

recombinant TEAD1 protein central pocket, sequence (P28347 whole entry): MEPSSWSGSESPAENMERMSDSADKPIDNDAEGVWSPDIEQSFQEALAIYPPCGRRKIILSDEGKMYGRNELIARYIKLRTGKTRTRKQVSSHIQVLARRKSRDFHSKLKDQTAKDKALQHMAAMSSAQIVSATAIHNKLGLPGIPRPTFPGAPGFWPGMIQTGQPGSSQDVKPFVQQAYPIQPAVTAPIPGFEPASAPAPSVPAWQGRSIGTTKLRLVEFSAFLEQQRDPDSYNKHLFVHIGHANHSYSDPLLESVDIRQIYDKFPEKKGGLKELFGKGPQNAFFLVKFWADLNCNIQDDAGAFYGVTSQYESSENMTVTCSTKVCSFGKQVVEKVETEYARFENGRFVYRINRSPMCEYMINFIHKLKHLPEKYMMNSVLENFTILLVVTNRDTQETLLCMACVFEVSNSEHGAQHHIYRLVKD
recombinant TEAD4 protein central pocket, sequence (Q15561 whole entry): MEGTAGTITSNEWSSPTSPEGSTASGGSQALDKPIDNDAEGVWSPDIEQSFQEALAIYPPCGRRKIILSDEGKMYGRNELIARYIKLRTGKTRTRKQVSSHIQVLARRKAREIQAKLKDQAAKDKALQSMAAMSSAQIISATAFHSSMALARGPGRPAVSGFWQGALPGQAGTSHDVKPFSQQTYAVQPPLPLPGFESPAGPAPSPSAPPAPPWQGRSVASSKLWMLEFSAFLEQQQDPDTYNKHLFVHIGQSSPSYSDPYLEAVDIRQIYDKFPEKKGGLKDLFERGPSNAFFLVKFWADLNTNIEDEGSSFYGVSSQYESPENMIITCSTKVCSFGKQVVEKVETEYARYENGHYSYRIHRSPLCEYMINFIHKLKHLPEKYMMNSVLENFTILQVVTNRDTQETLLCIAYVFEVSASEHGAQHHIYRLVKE
recombinant TEAD2 protein central pocket, sequence (Q15562 whole entry): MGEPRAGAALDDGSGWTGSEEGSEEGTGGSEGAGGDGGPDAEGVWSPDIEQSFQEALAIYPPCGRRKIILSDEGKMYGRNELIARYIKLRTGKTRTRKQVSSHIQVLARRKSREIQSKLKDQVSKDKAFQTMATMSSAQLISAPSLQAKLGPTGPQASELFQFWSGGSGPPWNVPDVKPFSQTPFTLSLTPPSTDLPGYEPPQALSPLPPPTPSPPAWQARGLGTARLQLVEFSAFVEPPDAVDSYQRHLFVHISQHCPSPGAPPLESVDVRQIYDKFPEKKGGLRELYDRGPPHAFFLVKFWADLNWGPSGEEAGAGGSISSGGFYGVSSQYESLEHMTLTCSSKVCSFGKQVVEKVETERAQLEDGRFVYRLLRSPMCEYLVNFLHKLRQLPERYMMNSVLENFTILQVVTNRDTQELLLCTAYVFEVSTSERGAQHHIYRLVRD
recombinant TEAD3 protein central pocket, sequence (Q99594 whole entry): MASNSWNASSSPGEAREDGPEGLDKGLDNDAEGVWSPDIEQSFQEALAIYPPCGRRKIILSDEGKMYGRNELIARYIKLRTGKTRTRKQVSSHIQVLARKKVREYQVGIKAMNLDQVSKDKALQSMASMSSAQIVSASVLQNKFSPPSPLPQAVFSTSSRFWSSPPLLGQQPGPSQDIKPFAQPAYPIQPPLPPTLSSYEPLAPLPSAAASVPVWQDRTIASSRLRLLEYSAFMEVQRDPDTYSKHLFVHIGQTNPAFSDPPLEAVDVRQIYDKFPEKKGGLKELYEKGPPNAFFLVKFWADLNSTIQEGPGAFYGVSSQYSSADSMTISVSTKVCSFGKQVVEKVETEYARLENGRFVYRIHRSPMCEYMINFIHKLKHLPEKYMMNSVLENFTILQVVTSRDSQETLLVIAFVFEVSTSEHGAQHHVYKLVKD
recombinant TEAD4 protein (217-434, Uniprot ID: Q15561), sequence (Q15561 217-434): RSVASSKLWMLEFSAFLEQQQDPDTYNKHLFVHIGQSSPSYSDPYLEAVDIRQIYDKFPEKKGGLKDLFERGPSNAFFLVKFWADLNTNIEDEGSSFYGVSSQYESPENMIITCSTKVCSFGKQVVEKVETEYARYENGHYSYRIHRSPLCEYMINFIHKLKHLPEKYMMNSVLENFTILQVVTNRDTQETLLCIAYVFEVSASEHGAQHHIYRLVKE
recombinant TEAD2 protein (218-447, Uniprot ID: Q15562), sequence (Q15562 218-447): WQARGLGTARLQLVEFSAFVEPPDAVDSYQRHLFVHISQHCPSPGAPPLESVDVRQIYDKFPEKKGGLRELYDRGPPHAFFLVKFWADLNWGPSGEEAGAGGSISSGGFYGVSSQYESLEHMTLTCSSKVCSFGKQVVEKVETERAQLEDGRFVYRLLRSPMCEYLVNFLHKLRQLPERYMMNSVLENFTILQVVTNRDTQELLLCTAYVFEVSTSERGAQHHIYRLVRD

Turning to `CNS(=O)(=O)c1ccc(Nc2ccc(C(F)(F)F)cc2)c(-c2cn(C)cn2)c1` [VT103, reference compound], the IC50 in series [1] is 880 nM; in [2] it was 2500 nM; in series [3], 2700 nM; in series [5] it was 1200 nM. The concentration at 24 h amounted to 828 nM in series [4] (CD-1, mouse, plasma, oral, VT103 in mice, IG 7 mg/kg, converted from ng/ml, read-out: blood concentration after 24 hours) and 340 ng/mL in [4] (CD-1, mouse, plasma, VT103 in mice, 7 mg/kg oral/IG, read-out: plasma drug concentration after 24 hours C24h). In series [4] (CD-1, mouse, plasma, po, 7 mg/kg, VT103 in mice), this molecule came in with a bioavailability of 75%. In series [4] (setting [15]), this molecule gave a clearance of 4.7 mL/min/kg. Further, in series [4] (setting [15]), the half-life is 13.2 h. Besides, the Vd in series [4] (CD-1, mouse, plasma, VT103 in mice, IV, read-out: VSS) worked out at 4.5 L/kg. Also, the Cmax in series [4] (CD-1, mouse, plasma, VT103 in mice, per oral (PO) 7 mg/kg, read-out: Cmax) stood at 896 ng/mL.
With `O=P1(c2ccc(Nc3ccc(C(F)(F)F)cc3)c(-c3ncccn3)c2)CC(CO)C1` (stereo not shown) [Compound 21], the “Δ T m (TEAD1)” value in series [6] is reported as “++++”. In addition, the “Δ T m (TEAD2)” value in series [7] is reported as “++++”. In addition, the IC50 in series [1] turned out to be 310 nM; in series [2], 110 nM; in series [5], 200 nM. Further, in series [8], the “binding ability to each subtype of TEAD family proteins” value (shortened to “binding ability to each subtype”) is “good binding abilities”. Further, the “Δ T m (TEAD4)” value in [9] is recorded as “++++”. Besides, in series [10], the “Δ T m (TEAD3)” value is given as “+++”.
As for `CCP(=O)(CC)c1ccc(Nc2ccc(C(F)(F)F)cc2)c(-c2cn(C)cn2)c1` [Compound 76], in [6], the “Δ T m (TEAD1)” value is given as “++++”. Moreover, the “Δ T m (TEAD2)” value in series [7] is “++++”. The IC50 in [1] stood at 530 nM; in [2], 220 nM; in [3], 710 nM; in series [5], 340 nM. For the same molecule, the “binding ability to each subtype” value in [8] is on record as “good binding abilities”. The “Δ T m (TEAD4)” value in series [9] was “++++”. For the same molecule, in series [10], the “Δ T m (TEAD3)” value is “+++”.
On to `COCCc1ccc(OCC(O)CNC(C)C)cc1` (stereo not shown) [Metoprolol], for which, in series [11] (setting [16]), the Papp at 120 min was found to be 17.8 ×10⁻⁶ cm/s. Besides, in series [12] (AP→BL, single replicate), the Papp is reported as 18.4 10^−6 cm/s. Besides, in [12], the “Penetration Type” value is “High”.
As for `Cn1cnc(-c2cc(P(C)(C)=O)ccc2Nc2ccc(C(F)(F)F)cc2)c1` [Compound 64], the “Δ T m (TEAD1)” value in [6] is “++++”. Moreover, in [13] (mouse liver microsome environment), the “metabolic stability” value is “good metabolic stabilities”. The molecule also displayed a mouse half-life in [13] (mouse liver microsomes) greater than 3.1 h. In addition, the “metabolic stability” value in series [14] (human liver microsome environment) is recorded as “good metabolic stabilities”. Besides, in series [14] (human liver microsomes), the human half-life is greater than 3.1 h. Moreover, in series [4] (CD-1 mice, IG 10 mg/kg vs IV 1 mg/kg), the F % was 87.1%. Moreover, in [4] (CD-1 mice, single IG 10 mg/kg), the AUC0-t came to 57458 ng·h/mL, the “AUC0-∞” value was 69572 ng·h/mL, the Cmax worked out at 4063 ng/mL and the MRT0-t came out at 8.16 h. For the same molecule, in [4] (CD-1 mice, single IG 10 mg/kg), the “MRT0-∞” value was 13.3 h, the Tmax was found to be 2.67 h and the t1/2 is 9.43 h. For the same molecule, in [4] (CD-1 mice, single IV 1 mg/kg), the AUC0-t was found to be 6596 ng·h/mL, the “AUC0-∞” value amounted to 7208 ng·h/mL, the CL came out at 2.33 mL/min/kg and the MRT0-t is given as 5.85 h. Moreover, in series [4] (CD-1 mice, single IV 1 mg/kg), the “MRT0-∞” value was found to be 8.26 h, the Vss turned out to be 1.15 L/kg and the t1/2 was found to be 6.98 h. The “pharmacokinetic properties in mice” value in series [4] (mice) is “good pharmacokinetic properties”. Besides, in series [8], the “binding ability to each subtype” value is “good binding abilities”.
Regarding `O=C1OC2(c3ccc(O)cc3Oc3cc(O)ccc32)c2ccccc21` [fluorescein], the Papp at 120 min in series [11] (n = 2, read-out: Papp average value) came to 0.349 ×10⁻⁶ cm/s. The Papp at 120 min in series [11] (setting [16]) was determined as 0.364 ×10⁻⁶ cm/s. In series [12] (AP→BL, single replicate), the Papp was 0.334 10^−6 cm/s; the “Receiving chamber concentration Area ratio/OD” value is 4.40E+07 and 4.05E+07. Besides, in series [12], the “Penetration Type” value is “Zero”.
